Measured values published in US12678423B2, “Therapeutic agent for amyotrophic lateral sclerosis and composition for treatment” (KEIO UNIVERSITY, priority 2016, dated 2026).

Experiments:
Assay type in all cases: cell-based, human
[1] = tested on: motor neurons induced to differentiate from iPS cells derived from ALS patients (FUS-ALS) having a mutation in FUS; assay: Neurite length in late stage ALS disease, FUS-ALS (Example I-9); conditions: final concentration 1 μM, added days 50 to 62 from start of differentiation induction, FIG. 14
Procedure: The efficacy of ropinirole was evaluated in the same manner as in Example I-8, except that the timing of adding ropinirole was changed to days 50 to 62 from the start of the differentiation induction of each iPS cell. It is assumed that days 50 to 62 after the start of induction of differentiation correspond to the late stage of the ALS disease.
Specifically, ropinirole was added to a medium of motor neurons induced to differentiate from iPS cells derived from ALS patients (FUS-ALS) having a mutation in FUS and motor neurons induced to differentiate from iPS cells derived from ALS patients (TDP-43-ALS) having a mutation in TDP-43 and the changes over time in the neurite length were measured. The measurement of neurite length was carried out in the same manner as in Example I-2. Ropinirole was added to the medium at a final concentration of 1 μM.
FIG. 14(a) is a graph showing the results of measurement of the changes over time in the neurite length of each motor neuron. In FIG. 14(a), the vertical axis represents the neurite length (relative value), the horizontal axis represents the number of days of culturing from the start of differentiation induction, and “+ROPI” represents the result of adding ropinirole to the medium. In addition, FIG. 14(b) is a graph enlarging the boxed portion of the graph of FIG. 14(a). […]

[2] = tested on: motor neurons differentiated from iPS cells derived from 24 patients having sporadic ALS (SALS); assay: CV caspase 3-positive ratio, 24 sporadic ALS patient models (Example III-5); conditions: final concentration 1 μM for 5 days
Procedure: In the same manner as in Example II-1, iPS cells derived from 24 patients having sporadic ALS (SALS) were differentiated into motor neurons and then ropinirole with a final concentration of 1 μM was added to the medium. In addition, for comparison, a group for which ropinirole was not added to the medium was prepared. In addition, as a control, a group for which iPS cells derived from healthy subjects were differentiated into motor neurons in the same manner as in Example I-1 was used. No ropinirole was added to the medium of these motor neurons. As the iPS cells derived from a healthy subject, the same cells as used in Example I-1 were used.
Below, each differentiated motor neuron is identified by the patient number from whom the neuron was derived.
In all of the motor neurons, the addition period of ropinirole was 5 days. The time to start the addition of ropinirole varied depending on the case and was from day 30 to day 70 from the start of the differentiation induction of each of the iPS cells.
Subsequently, for each motor neuron on day 5 after the addition of ropinirole, the ratio of CV caspase 3-positive neurons was measured in the same manner as in Example I-3.
FIG. 15 is a graph showing the measurement results of the ratio of CV caspase 3-positive neurons. […]

[3] = tested on: motor neurons induced to differentiate from iPS cells derived from ALS patients (FUS-ALS) having a mutation in FUS; assay: Neurite length, FUS-ALS motor neurons (screening, Example I-8)
Procedure: For each differentiation-induced motor neuron in Example I-1, the changes over time in the neurite length were measured. A Bio station CT (Nikon Corp.) was used to measure the neurite length over time. FIG. 1 is a graph showing measurement results of changes over time in the neurite length. The vertical axis represents neurite length (relative value), and the horizontal axis represents the number of days of culturing from the start of differentiation induction.
Using the differentiation-induced motor neurons in Example I-1, drugs which cause the ALS phenotype to be restored were screened from existing drug libraries with the neurite length, ectopic localization of FUS protein, stress granule formation, LDH leakage ratio, CV-caspase 3-positive ratio, phosphorylated TDP-43 protein inclusion formation, and the like as indices.
As a result of the screening, ropinirole was found as a promising therapeutic agent for ALS. Tables 5 and 6 show the improvement ratio (%) in the ALS phenotype due to adding ropinirole to the medium. Here, ropinirole was added to the medium on days 35 to 40 from the start of the differentiation induction of each iPS cell. Here, it is assumed that days 35 to 40 from the start of differentiation induction correspond to the early stage of the ALS disease.
The improvement ratio (%) of the ALS phenotype was calculated by Equation (1).
[formula] [In Equation (1), A represents a measurement value of motor neurons induced to differentiate from iPS cells derived from ALS patients in the absence of ropinirole, and B represents a measurement value of motor neurons induced to differentiate from iPS cells derived from ALS patients in the presence of ropinirole, and C represents a measurement value of motor neurons induced to differentiate from iPS cells derived from healthy subjects in the absence of ropinirole.]
Subsequently, in the same manner as above, the efficacy in cases of administering lower concentrations of ropinirole was evaluated.
Each drug was added to the medium at a final concentration of 10 μM.

[4] = tested on: motor neurons induced to differentiate from iPS cells derived from SALS patients; assay: Stress granules, sporadic ALS model (Example III-4); conditions: final concentration 1 μM, days 35 to 40, measured on day 40, FIG. 13
Description: In the same manner as in Example I-1, iPS cells derived from sporadic ALS (may be referred to below as “SALS”) patients were differentiated into motor neurons. All the iPS cells used were derived from dermal fibroblasts. Below, each differentiated motor neuron is identified by the patient number from whom the neuron was derived.
In the same manner as in Example II-1, iPS cells derived from sporadic ALS (SALS) patients were induced to differentiate into motor neurons, and ropinirole with a final concentration of 1 μM was added to the medium. More specifically, for the period of days 35 to 40 from the start of differentiation induction, ropinirole having a final concentration of 1 μM was added to the medium. In addition, a group for which ropinirole was not added to the medium was prepared as a control. In addition, for comparison, iPS cells derived from healthy subjects were differentiated into motor neurons in the same manner as in Example I-1. No ropinirole was added to the medium of these motor neurons. As the iPS cells derived from a healthy subject, the same cells as used in Example I-1 were used.
Subsequently, on day 40 from the start of differentiation induction, the number of stress granules was measured for each motor neuron in the same manner as in Example I-7.
FIG. 13 is a graph showing the measurement result of the number of stress granules. […]

CCCN(CCC)CCc1cccc2c1CC(=O)N2 [Ropinirole, 4-(2-di-n-propylaminoethyl)-2(3H)-indole]
Neurite length (changes over time), late stage [1]: neuroprotective action (maintenance of neurite length) | Share of SALS cases in which the increase in CV caspase 3-positive ratio was suppressed ([2]; 16 of 22 cases): 72.73 % of SALS cases | Cases in which the increase in CV caspase 3-positive ratio was suppressed ([2]; among 22 SALS cases with confirmed increase (of 24), FIG. 15): 16 cases | Neurite length improvement ratio ([3]; final concentration 0.1 nM): 3.22% | Neurite length improvement ratio ([3]; final concentration 1 nM): 32.3% | Neurite length improvement ratio ([3]; final concentration 10 nM): 45.8% | Neurite length improvement ratio ([3]; final concentration 0.1 μM, added days 35 to 40 from start of differentiation induction): 43.3% | Neurite length improvement ratio ([3]; final concentration 1 μM, added days 35 to 40): 58.3% | Neurite length improvement ratio ([3]; final concentration 10 μM, added days 35 to 40): 61.3% | Number of stress granules [4]: significantly decreased
